Literature values as cited in patent publication US8703753B2, “Use of tellurium compounds for the treatment of actinic keratosis” (Biomas Ltd., priority 2005, dated 2014).
Read-outs that look alike come from different tables or passages of the source.

Tests used:
[1] = rats, intravenous and intramuscular administration
interferon (IFN) [2] = conditions: mice
interferon (IFN) [3] = conditions: humans

Cl[TeH]1(Cl)(Cl)OCCO1.N [AS101, ammonium trichloro(dioxyethylene-O,O′)tellurate]
LD50 relative to the immunologically effective dose [1]: 500-1000 folds | activation of interferon (IFN) (interferon (IFN) [2]): potent activator | activation of interferon (IFN) (interferon (IFN) [3]): potent activator | effect on IL-10 at the m-RNA level (IL-10): inhibit IL-10
